For 59 compounds, activity results are on record in patent US20150259344A1, “IMIDAZOLE DERIVATIVE” (DAINIPPON SUMITOMO PHARMA CO., LTD., priority 2012, published 2015).

In the first experiment the target is T1, human α7 nAChR (Homo sapiens, UniProt P36544).
T1 construct: expressed in transfected cells
T1 sequence (P36544 23-502): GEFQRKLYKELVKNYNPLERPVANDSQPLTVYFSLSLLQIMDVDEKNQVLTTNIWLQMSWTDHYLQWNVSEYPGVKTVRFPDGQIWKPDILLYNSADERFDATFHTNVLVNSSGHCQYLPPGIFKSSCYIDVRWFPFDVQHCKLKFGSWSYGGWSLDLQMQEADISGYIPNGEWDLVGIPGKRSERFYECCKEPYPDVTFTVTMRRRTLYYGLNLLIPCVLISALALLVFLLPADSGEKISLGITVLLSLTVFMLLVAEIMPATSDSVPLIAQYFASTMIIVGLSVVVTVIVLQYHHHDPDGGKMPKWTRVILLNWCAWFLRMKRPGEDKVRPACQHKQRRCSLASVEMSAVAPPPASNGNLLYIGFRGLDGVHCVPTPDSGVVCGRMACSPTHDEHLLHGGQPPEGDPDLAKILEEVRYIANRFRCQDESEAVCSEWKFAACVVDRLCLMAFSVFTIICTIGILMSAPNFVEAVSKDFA
Put plainly: Evaluation of PAM activity with human α7 nACh receptor stably expressing cells (aequorin luminescence, FDSS7000). The conditions noted are these: 1 μM test compound (values marked *, footnote of Table 25); ACh at EC20; ratio of RLU (Max-Min) to control wells; read-out: α7PAM (%) @1 μM. In kind it is cell-based. The method, then:
Evaluation of PAM activity with human α7 nACh receptor stably expressing cells
(1) Human α7 nAChR stably expressing cells
Human α7 nAChR stably expressing cells were generated and cultured.
Thus, the cells were subcultured.
Seven days after subculturing, the cells were treated with TrypLE Express to collect them when they were about 80% confluent.
On the next day after seeding, Viviren (cat#E649X, Promega, Madison, Wis., USA) was added to the medium so that the final concentration could be 4 μM (15 μL/well). The plates were centrifuged and then placed in the dark for 4 hours at room temperature.
(2) Preparation of the Test Samples
Each of the test compounds was dissolved in DMSO to prepare each test sample at a concentration of 1000-fold the final concentration. To the solution was added Hanks/20 mM HEPES/0.2% BSA (cat#A3803, Sigma, St. Louis, Mo., USA), and the concentration was adjusted to 6-fold the final concentration.
(3) Evaluation of PAM Activity
FDSS7000 (Hamamatsu Photonics) was used to detect the luminescence signal evoked by α7 nAChR stimulation. The cells and a luminescent substrate were put on a plate, and the test sample was added thereto. […] The ratio of the RLU (Max-Min) of the test-compound-containing wells to that of the control wells was defined as PAM activity.
Turning to `O=C(N[C@H]1CC[C@@H](n2cnc(-c3cccc(F)c3)c2Cl)CC1)C1CCC1` [Example 176], the activity at 1 µM stood at 258%.
Take `O=C(N[C@H]1CC[C@@H](n2cnc(-c3cccc(F)c3)c2Cl)CC1)C1CCCC1` [Example 177]: the activity at 1 µM was 389%.
On to `O=C(N[C@H]1CC[C@@H](n2cnc(-c3ccc(F)cc3)c2Cl)CC1)C1CCCC1` [Example 182], for which the activity at 1 µM came out at 682%.
As to `O=C(N[C@H]1CC[C@@H](n2cnc(-c3ccc(F)cc3)c2Cl)CC1)c1ccc(F)cc1` [Example 184], the activity at 1 µM was 303%.
For the compound `COc1cc(-c2ncn([C@H]3CC[C@@H](NC(=O)C4CCC4)CC3)c2Cl)ccc1F` [Example 191], the activity at 1 µM worked out at 364%.
As to `COc1cc(-c2ncn([C@H]3CC[C@@H](NC(=O)C4CCC4)CC3)c2Cl)c(Cl)cc1F` [Example 192], the activity at 1 µM is 274%.
For `CC(C)(C)C(=O)N[C@H]1CC[C@@H](n2cnc(-c3ccc(C(F)(F)F)cc3)c2C#N)CC1` [Example 199], the activity at 1 µM is 230%.
Consider `CC(C)(C)C(=O)N[C@H]1CC[C@@H](n2cnc(-c3cccc(C(F)(F)F)c3)c2C#N)CC1` [Example 200], for which the activity at 1 µM amounted to 180%.

Still in this experiment, the particulars now being: 10 μM test compound; ACh at EC20; ratio of RLU (Max-Min) to control wells; read-out: α7PAM (%) @10 μM.
For the compound `O=C(N[C@H]1CC[C@@H](n2cnc(-c3ccccc3)c2Cl)CC1)C1CCCCC1` [Example 168], the activity at 10 µM was found to be 829%.
On to `O=C(N[C@H]1CC[C@@H](n2cnc(-c3ccccc3)c2Cl)CC1)C1CCC(F)(F)CC1` [Example 169], for which the activity at 10 µM turned out to be 454%.
Still for that read-out and setting: under `O=C(N[C@H]1CC[C@@H](n2cnc(-c3ccccc3)c2Cl)CC1)C1CCCC1` [Example 170] stands 530%.
For `O=C(N[C@H]1CC[C@@H](n2cnc(-c3ccccc3)c2Cl)CC1)C1CCC1` [Example 171], the activity at 10 µM was determined as 551%.
On to `CC(C)(F)C(=O)N[C@H]1CC[C@@H](n2cnc(-c3ccccc3)c2Cl)CC1` [Example 172], for which the activity at 10 µM was determined as 480%.
As to `O=C(N[C@H]1CC[C@@H](n2cnc(-c3ccccc3)c2Cl)CC1)C1(C(F)(F)F)CC1` [Example 174], the activity at 10 µM was 224%.
On to `CC(C)(F)C(=O)N[C@H]1CC[C@@H](n2cnc(-c3cccc(F)c3)c2Cl)CC1` [Example 175], for which the activity at 10 µM turned out to be 397%.
Same read-out and setting: the same measure for `COc1ccc(-c2ncn([C@H]3CC[C@@H](NC(=O)C(C)(C)F)CC3)c2Cl)cc1Cl` [Example 178]: 775%; for `COc1ccc(-c2ncn([C@H]3CC[C@@H](NC(=O)C4CCC4)CC3)c2Cl)cc1Cl` [Example 179]: 269%.
For the compound `COc1ccc(-c2ncn([C@H]3CC[C@@H](NC(=O)C4CCCC4)CC3)c2Cl)cc1Cl` [Example 180], the activity at 10 µM was found to be 375%.
On to `O=C(N[C@H]1CC[C@@H](n2cnc(-c3ccc(F)cc3)c2Cl)CC1)C1CCC1` [Example 181], for which the activity at 10 µM is 641%.
As for `CC(C)(F)C(=O)N[C@H]1CC[C@@H](n2cnc(-c3ccccc3F)c2Cl)CC1` [Example 185], the activity at 10 µM amounted to 576%.
As for `COc1cc(-c2ncn([C@H]3CC[C@@H](NC(=O)C(C)(C)F)CC3)c2Cl)ccc1F` [Example 186], the activity at 10 µM was 254%.
On to `O=C(N[C@H]1CC[C@@H](n2cnc(-c3ccccc3)c2Cl)CC1)C1CC(F)(F)C1` [Example 188], for which the activity at 10 µM worked out at 581%.
With `CC(C)(F)C(=O)N[C@H]1CC[C@@H](n2cnc(-c3cccc(C(F)(F)F)c3)c2Cl)CC1` [Example 193], the activity at 10 µM was found to be 187%.
Same read-out and setting: under `O=C(N[C@H]1CC[C@@H](n2cnc(-c3cccc(C(F)(F)F)c3)c2Cl)CC1)C1CCC1` [Example 195] stands 142%; under `O=C(N[C@H]1CC[C@@H](n2cnc(-c3ccc(C(F)(F)F)cc3)c2Cl)CC1)C1CCC1` [Example 196], 498%; under `CC(C)(F)C(=O)N[C@H]1CC[C@@H](n2cnc(-c3ccccc3)c2C#N)CC1` [Example 197, N-[cis-4-(5-cyano-4-phenyl-1H-imidazol-1-yl)cyclohexyl]-2-fluoro-2-methylpropanamide], 637%.
Take `N#Cc1c(-c2ccccc2)ncn1[C@H]1CC[C@@H](NC(=O)C2CCC2)CC1` [Example 198]: the activity at 10 µM was 799%.
For the compound `CC(C)(F)C(=O)N[C@H]1CC[C@@H](n2cnc(-c3ccc(C(F)(F)F)cc3)c2C#N)CC1` [Example 201, N-(cis-4-{5-cyano-4-[4-(trifluoromethyl)phenyl]-1H-imidazol-1-yl}cyclohexyl)-2-fluoro-2-methylpropanamide], the activity at 10 µM was 224%.
Regarding `CC(C)(F)C(=O)N[C@H]1CC[C@@H](n2cnc(-c3cccc(C(F)(F)F)c3)c2C#N)CC1` [Example 202], the activity at 10 µM was found to be 263%.
In the case of `N#Cc1c(-c2ccccc2)ncn1[C@H]1CC[C@@H](NC(=O)C2CC(F)(F)C2)CC1` [Example 203], the activity at 10 µM turned out to be 641%.
Turning to `O=C(N[C@H]1CC[C@H](n2cnc(-c3ccccc3)c2)CC1)C1CCCCC1` [Example 204], the activity at 10 µM was determined as 172%.
Same read-out and setting: under `O=C(N[C@H]1CC[C@H](n2cnc(-c3ccccc3)c2)CC1)C1CCC(F)(F)CC1` [Example 205] stands 110%; under `O=C(N[C@H]1CC[C@H](n2cnc(-c3ccccc3)c2Cl)CC1)C1CCCCC1` [Example 206], 102%; under `O=C(N[C@H]1CC[C@H](n2cnc(-c3ccccc3)c2Cl)CC1)C1CCC(F)(F)CC1` [Example 207], 115%.
Consider `Fc1ccc(-c2ncn([C@H]3CC[C@@H](Nc4cc(C(F)(F)F)ncn4)CC3)c2Cl)cc1` [Example 237], for which the activity at 10 µM turned out to be 405%.
Turning to `Cc1c(-c2ccc(F)cc2)ncn1[C@H]1CC[C@@H](Nc2cc(C(F)(F)F)ncn2)CC1` [Example 239], the activity at 10 µM is 207%.
For the compound `O=C(NC1CCCCC1)N1CCCC(n2cnc(-c3ccc(F)cc3)c2)CC1` (centres unmarked) [Example 240], the activity at 10 µM turned out to be 280%.
With `O=C(NC1CCCCC1)N1CCCC(n2cnc(-c3ccc(F)cc3)c2Cl)CC1` (centres unmarked) [Example 241], the activity at 10 µM came to 314%.
In the case of `O=C(C1CCC(F)(F)CC1)N1CCCC(n2cnc(-c3ccc(F)cc3)c2)CC1` (centres unmarked) [Example 242], the activity at 10 µM turned out to be 297%.
Still for that read-out and setting: under `O=C(C1CCC(F)(F)CC1)N1CCCC(n2cnc(-c3ccc(F)cc3)c2Cl)CC1` (centres unmarked) [Example 243] stands 290%; under `O=C(NC1CCOCC1)N1CCC(n2cnc(-c3cccc(F)c3)c2)CC1` [Example 244], 175%; under `O=C(NC1CCOCC1)N1CCC(n2cnc(-c3ccc(F)cc3)c2)CC1` [Example 245], 197%.
Consider `O=C(NC1CCOCC1)N1CCC(n2cnc(-c3ccc(Cl)cc3F)c2)CC1` [Example 248], for which the activity at 10 µM worked out at 901%.
As to `O=C(NC1CCOCC1)N1CCC(n2cnc(-c3ccc(C(F)(F)F)c(F)c3)c2)CC1` [Example 251], the activity at 10 µM worked out at 369%.
For `O=C(NC1CCOCC1)N1CCC(n2cnc(-c3ccccc3F)c2Cl)CC1` [Example 252], the activity at 10 µM worked out at 648%.
Still for that read-out and setting: the same measure for `O=C(NC1CCOCC1)N1CCC(n2cnc(-c3cccc(F)c3)c2Cl)CC1` [Example 253]: 899%; for `N#Cc1c(-c2ccc(F)cc2)ncn1C1CCN(C(=O)NC2CCCCC2)CC1` [Example 255]: 759%; for `Cc1c(-c2ccc(F)cc2)ncn1C1CCN(C(=O)NC(C)(C)C)CC1` [Example 257]: 439%.
`Cc1c(-c2ccc(F)cc2)ncn1C1CCN(C(=O)NC2CCOCC2)CC1` [Example 259]: the activity at 10 µM is 420%.
Same read-out and setting: under `CC(C)(F)C(=O)N1CCC(n2cnc(-c3ccc(F)cc3)c2)CC1` [Example 260] stands 146%; under `O=C(C1CCC(F)(F)CC1)N1CCC(n2cnc(-c3ccc(F)cc3)c2)CC1` [Example 261], 399%.
On to `O=C(C1CCOCC1)N1CCC(n2cnc(-c3ccc(C(F)(F)F)cc3)c2Cl)CC1` [Example 262], for which the activity at 10 µM worked out at 603%.
As to `CC(C)(F)C(=O)N1CCC(n2cnc(-c3ccc(F)cc3)c2Cl)CC1` [Example 263], the activity at 10 µM turned out to be 193%.
`O=C(C1CCOCC1)N1CCC(n2cnc(-c3ccc(Cl)cc3)c2Cl)CC1` [Example 264]: the activity at 10 µM came to 781%.

The experiment is the same for the next values; noted with them: GH4-C1, 10 μM test compound; ratio of RLU (Max-Min) of test wells to control wells after ACh at EC20; GH4C1 cells expressing human α7 nAChR and aequorin; read-out: α7PAM (%) @10 μM.
In the case of `O=C(NC1CCCCC1)[C@H]1CC[C@H](n2cnc(-c3ccccc3)c2)CC1` [Example 231], the activity at 10 µM was found to be 149%.
On to `CC(C)(C)NC(=O)[C@H]1CC[C@H](n2cnc(-c3ccccc3)c2)CC1` [Example 232], for which the activity at 10 µM was 113%.
For the compound `O=C(NC1CCCCC1)[C@H]1CC[C@H](n2cnc(-c3ccccc3)c2Cl)CC1` [Example 233], the activity at 10 µM is 102%.
On to `CC(C)(C)NC(=O)[C@H]1CC[C@H](n2cnc(-c3ccccc3)c2Cl)CC1` [Example 234], for which the activity at 10 µM worked out at 130%.
Same read-out and setting: the same measure for `FC(F)(F)c1cc(N[C@H]2CC[C@@H](n3cnc(-c4ccccc4)c3)CC2)ncn1` [Example 235, N-[cis-4-(4-Phenyl-1H-imidazol-1-yl)cyclohexyl]-6-(trifluoromethyl)pyrimidin-4-amine]: 631%.
